Source: patent US10987345B2, “Method for assessing the efficacy of IMiDs and composition or combination for use in treating IMiD sensitive diseases” (Klinikum Rechts Der Isar Der Technischen Universitat Munchen, priority 2014, dated 2021)

Columns and labels:
VEGF = VEGF secretion in MM cell culture supernatants (ELISA); format: cell-based, human; details: 10 μM, 96 h
Source text: (§1) Supernatants were collected and snap-frozen for subsequent analysis. VEGF and MMP7 concentrations were, determined in an enzyme linked immunosorbent assay (ELISA) using kits RAB0507, and RAB0369 (VEGF and MMP7 respectively, both Sigma) according to the manufacturer's instructions. Results were normalized to protein concentration of corresponding cell lysates.

CD147 [1] = test: CD147 surface expression on erythropoiesis in MDS patient bone marrow (flow cytometry); format: in vivo, human; details: del(5q) MDS patients on lenalidomide treatment vs untreated del(5q) and non-del(5q) MDS
Source text: After informed consent, bone marrow samples from patients with MDS were collected in heparin, lysed with Versalyse® (Beckman Coulter, Krefeld, Germany), stained with anti-human monoclonal fluorochrome-conjugated antibodies and analyzed by flow-cytometry on a Cytomics FC 500 analyzer (Beckman Coulter). The following antibodies were used: Beckman Coulter: CD45-ECD (clone J33), CD33-PE (clone D3HL60.251), CD14-PECy5 (clone RM052), CD7-PE (clone 8H8.1), CD3-PECy5 (clone UCHT1), CD19-PECy7 (clone J4,119), CD7-PE, GlyA-PE (clone 11E4B-7-6), CD34-PECy7 (clone 581) and CD147-FITC (clone HIM6) from BD Biosciences. Using a CD45 vs, SSC gating strategy monocytes, lymphocytes, granulocytes, progenitor cells and CD45low/-GlyA+ cells were identified, Gates were then placed on CD19+ B-cells, CD3+ and CD3-CD7+ NK cells within the lymphocyte gate; on CD33+ granulocytes and CD14+ monocytes; on CD45low/CD33+ CD34+ progenitor cells and on CD45low/-GlyA+ erythropoiesis. CD147 expression of CD45low/-GlyA+ erythropoiesis was then determined by histogram gating. Data are represented as median fluorescence intensity of CD147 relative to isotype-matched control. Data were analyzed using Kaluza® Flow Analysis Software (Beckman Coulter).

CD147/MCT1 complex = test: Immunoblot analysis of CD147 and MCT1 protein levels in myeloma cells; format: cell-based, human
Protocol: HEK 293T and HeLa cells were grown in Dulbecco's modified Eagle's Medium (DMEM), each media containing 10% fetal bovine serum. (FBS). The human multiple myeloma cell lines MM1.S, U266, KMS-12-BM, RPMI 8226 and JJN3 were cultured in RPMI-1640 with 10% FBS. […] Sf9 insect cells (Life technologies) were cultured in Sf-900 II serum-free medium (SFM, Life technologies) supplemented with 10% heat-inactivated FBS and 10 μg/ml gentamycin. High Five cells (Invitrogen) were cultured in Express Five SFM supplemented with 10 mM L-glutamine and 10 μg/ml gentamycin. All cells tested mycoplasma negative by a PCR detection method.
Cell samples were lysed in lysis buffer (NaCl 150 mM, Tris-HCl 50 mM, MgCl2 5 mM, EDTA 1 mM, INP-40 0.1%, Glycerol 5% and inhibitors) for whole cell lysates, immunoprecipitations or pulldown experiments. Details of extract preparation, immunoprecipitation, and immunoblotting, were previously described. Briefly, the cellular lysates were centrifuged 15 min at 14 000 rpm at 4° C. to separate from cellular debris. Protein concentration in the supernatants was measured before Laemmli buffer was added. The lysates were separated by SDS-PAGE and blotted onto PVDF (polyvinylidene difluoride) membranes. After blotting, PVDF membranes were stained With. Ponceau solution to evaluate protein loading. After washing and blocking unspecific bindings in 5% milk; the membranes were incubated with primary antibodies. After addition of horseradish peroxidase coupled secondary antibodies, western blot membranes were developed using the ECL (enhanced chemoluminescence) method (SuperSignal West reagents from Thermo Scientific). For immunoprecipitations (IPs), cell lysates were incubated with Flag-M2 agarose beads (Sigma) for Flag-IPs, HA-7 agarose beads (Sigma) for HA-IPs, or protein-A sepharose beads (GE Healthcare) together with primary rabbit antibodies for binding of endogenous proteins (e.g. for CRBN-IP). For the experiments using a protein cross linker, DSS (Pierce) was added to the cells to a final concentration of 1 mM for 45 minutes at RT. The Cross linker was quenched by addition of Tris-HCl, pH 7.5 20 mM and cell lysis was performed as described, with the only exception of HEPES buffer 50 mM, pH 7.5 instead of Tris-HCl buffer. After washing the beads four times in lysis buffer, Laemmli buffer was added and proteins were analyzed by SDS-electrophoresis.

[2] = test system: del(5q) MDS bone marrow derived CD34+ cells; test: Apoptosis (Annexin V/PI) in in vitro propagated del(5q) MDS CD34+ cells; format: cell-based, human; details: 10 μM lenalidomide, erythroid differentiation, non-erythroid vs early erythroid (CD36+) cells
Protocol: Mononuclear cells from bone marrow aspirates were enriched for CD34^+ cells by magnetic bead selection (MACS, MiltenylBiotech) according to the manufacturer's instructions. CD34^+ cells were differentiated along the erythroid lineage essentially as known in the art. […] On day 7, 2 IU/ml erythropoietin (EPO Janssen-CILAG GmbH) was added to the cultures to stimulate erythropoiesis. Half medium changes were performed every third day and cells were harvested on day 14.
Cells were collected and washed with Annexin/PI buffer containing […], 1.62 mM CaCl2. Cell pellets were stained with CD34-FITC (BD Pharmingen, clone 581/CD34), CD147-PE (BD Pharmingen, done HIM6), CD33-PC5.5 (Beckmann Coulter, clone D3HL60.251), CD45 PE Cy7 (eBioscience, clone H130), CD36-APC Cy7 (BioLegend, clone 336213), primary CD235α-biotin (eBioscience, clone HIR2) and secondary streptavidin eFluor®450 (eBioscience) antibodies according to manufacturer's instructions. The combination of APC Annexin V (BD Pharmingen) and PI was added for the determination of apoptosis and necrosis. Single stained samples were used for compensation.
Flow cytometry was performed on a CyAn ADP LxP8 (Coulter-Cytomation) and data were analyzed using FlowJo software (TreeStar Inc.).

CD147 [3] = test: Pulse chase analysis of CD147 protein maturation in MM1S cells; format: cell-based, human; details: 35S-Met/Cys pulse-chase
Protocol: In a complementary approach using pulse-chase analysis, CD147 protein maturation from the immature core-glycosylated to the mature high-glycosylated form necessary for membrane localization was investigated. […] Importantly, treatment with MLN4924, an inhibitor of Cullin-RING ubiquitin ligases, had no effect on CD147 stability or processing, thereby further underscoring a ubiquitin-independent effect of CRBN on CD147 (FIG. 13h).
Labelling of MM1S cells with ^35S-Met/Cys was essentially performed as described previously. […] Newly translated proteins were metabolically labeled for 45 Minutes with methionine- and cysteine-free DMEM containing 0.2 mCi/ml [35S]-Met/Cys. Cells were then washed three times with PBS (37° C.) and incubated with DMEM for up to 24 hours.

CD147 [4] = test: Flow cytometry of CD147 cell surface expression in MM1S cells; format: cell-based, human; details: lenalidomide 10 μM
Protocol: The secondary antibody was […] anti mouse IgG. After washing, stained cells were analysed for CD147 expression using a FACSCalibur (Becton Dickinson).

MM cell lines [5] = test: Intra- and extracellular lactate measurement in MM cells; format: cell-based, human
Protocol: For analysis of intra- and extracellular lactate, lenalidomide or DMSO treated cells were centrifuged down. For extracellular lactate, the supernatant was collected and frozen; normal cell culture medium was used as control for normalization. For measurement of intracellular lactate, cell pellets were lysed in lysis buffer. Lactate content in cell lysates as well as in the supernatants were analysed with the cobas 8000 (Roche).

MM cell lines [6] = test: Cell proliferation / survival of MM cells (trypan blue exclusion); format: cell-based, human; details: sensitive cells (MM1S), 10 μM lenalidomide, 72 hours
Protocol: MM cells were subjected to treatment with lenalidomide/DMSO for the indicated times or infected with lentiviral-shRNA. On days indicated, proliferation was assessed using the trypan blue exclusion method. Results are presented as ratios to DMSO, wildtype or sh_scramble controls.

MMP7 = MMP7 secretion in MM cell culture supernatants (ELISA); format: cell-based, human; details: 10 μM, 96 h
Source text: as §1

[7] = lenalidomide-sensitive MM cell lines

Nc1cccc2c1CN(C1CCC(=O)NC1=O)C2=O (centres unmarked) [lenalidomide]
VEGF secretion (VEGF; [7]): significantly reduced
VEGF secretion (VEGF; resistant MM cell lines): only minor effects
CD147 surface expression in the erythropoietic compartment (CD147 [1]): attenuated to the level of non-del(5q) MDS samples
Level of immature, core-glycosylated form of CD147 (CD147/MCT1 complex; MM1S cells, 10 μM lenalidomide, time course): progressive accumulation
Dose dependence of CD147 and MCT1 destabilization (CD147/MCT1 complex; MM1S cells, different concentrations, 72 hours): destabilizes CD147 and MCT1 in a dose dependent manner
Destabilization of CD147/MCT1 (CD147/MCT1 complex; MM1S cells, 10 μM lenalidomide, 100 nM pomalidomide, 100 μM thalidomide): destabilize CD147/MCT1
CD147 and MCT1 expression upon lenalidomide exposure (CD147/MCT1 complex; lenalidomide-resistant MM lines (KMS12BM, RPMI 8226)): remained unchanged
CD147 and MCT1 stability upon lenalidomide exposure (CD147/MCT1 complex; lenalidomide-sensitive MM lines (MM1S, U266)): destabilization of CD147 and MCT1
Lenalidomide-induced apoptosis by cell compartment [2]: largely restricted to early erythroid cells
CD147 de novo synthesis (CD147 [3]): no effect
CD147 glycosylation as readout for maturation and membrane localization (CD147 [3]): substantially impaired
CD147 cell surface expression (CD147 [4]): decreased
Intracellular lactate levels (MM cell lines [5]; [7]): significantly elevated
Intracellular lactate levels (MM cell lines [5]; resistant MM cell lines): only minor effects
Anti-myeloma effect of lenalidomide under induced overexpression of CD147 and MCT1 (MM cell lines [6]): attenuated
MMP7 secretion (MMP7; [7]): significantly reduced
MMP7 secretion (MMP7; resistant MM cell lines): only minor effects
